Data on 6 compounds can be found in patent US20090036437A1, “PHARMACEUTICAL COMPOSITION COMPRISING PHENOXAZINIUM COMPOUND AS AN ACTIVE INGREDIENT” (priority 2005, published 2009).

Holding throughout (assay type): cell-based
Series [1] concerns Rat L6 cell (rat skeletal myoblast cell). In words: in vitro growth-inhibiting assay of rat L6 cells. Here is the method: Rat L6 cell (rat skeletal myoblast cell) was cultured in RPMI-1640 culture medium supplemented with 1% of L-glutamine (200 mM) and fetal calf serum (10%) under 5% CO2 concentration at 37° C. A test sample was prepared by dissolving the test compounds according to the present invention and a positive control drug in DMSO to a predetermined concentration. After pre-culture had been finished, the culture medium containing the cells in a logarithmic phase was placed into each well of a 96-well culture plate, and the test sample comprising the predetermined amount of the test compound, and DMSO without the test compound were added to the wells in duplicate.
(§1) After incubation of the culture plate for 72 hours in an incubator, a growth-inhibiting activity was assayed as follows. Alamar Blue aqueous solution (10 μL) was added to each well followed by a further two-hour culture. The culture plate was then attached to a fluorescence micro titer plate reader (Spectramax Gemeni XS; U.S. Molecular Device Co.), and the intensity of fluorescence at 588 nm was detected with an excitation wave length of 536 nm. A residual ratio of L6 cells was calculated with respect to a group treated with the test sample and a control group. A growth-inhibiting ratio for L6 cells was then calculated from the resulting residual ratio in accordance with the following equation to determine 50% growth-inhibiting concentration (EC50).
Growth-inhibiting ratio (%)=[1−(C−A)/(B−A)]×100 • A: Initial number of cells; • B: Number of the cells in the control after 3 days; and • C: Number of the cells treated with the test sample after 3 days Determination of Pharmaceutical effect for Chloroquine-Resistant Malaria

Series [2] concerns Trypanosoma brucei rhodensiense (STIB 900 strain). In words: in vitro growth-inhibiting screening assay, protozoa of African trypanosomiasis. The conditions noted are these: for EC50: 72 h, Alamar Blue, read-out: 50% growth-inhibiting concentration (nM) Trypanosoma brucei rhod. Here is the method:
This test was done using a trypomastigote of the protozoa of Trypanosoma brucei rhodensiense (STIB 900 strain) ranging in blood stream. MEM medium sterilized by filtration was supplemented with 25 mM of N-2-hydroxyethylpiperazine-2-ethanesulfonic acid (HEPES), 1 g/L of glucose, 1% of MEM non-essential amino acids, 0.2 mM of 2-mercaptoethanol, 2 mM of sodium pyruvate, 1 mM of hypoxathine and 15% of heat-treated horse serum. The protozoa were cultured under CO2 concentration of 5%, at 37° C.
A test sample was prepared by dissolving the test compounds according to the present invention and a positive control drug (Melarsoprol) in DMSO to a predetermined concentration. Culture medium containing the protozoa of 8×10^3, and the test sample comprising the predetermined amount of the test compound, and DMSO without the test compound were added into each well of 96-well culture plate to a final volume of 100 μL in duplicate.
as §1, with “Co.),” for “Co.), and”, “with” for “with an”, “nm to calculate an infection” for “nm. A residual”, “the protozoa” for “L6 cells was calculated”, “ratio” for “ratio for L6 cells”, “infection” for “residual”
(§2) Growth-inhibiting ratio (%)=[1−(b−a)/(c−a)]×100 • a: Initial infection ratio; • b: Infection ratio of the test sample group; and • c: Infection ratio of the control group.
A selective toxicity coefficient, which is used as an index for the selective toxicity for the protozoa of African trypanosomiasis, was calculated by the following equation, and the pharmaceutical effect was determined.
Selective toxicity coefficient=(EC50 value of the test sample for rat L6 cell)/(EC50 value of the test sample for the protozoa of African typanosomiasis)
(In general: The colour change of resazurin is a common sign of viable cells or microbes.)

Series [3] has as its system Leishmania donovani (MHOM/ET/67/L82 strain). In words: in vitro growth-inhibiting screening assay, protozoa of Leishmaniasis. The conditions noted are these: amastigotes; 72 h, Alamar Blue; read-out: growth-inhibiting concentration (nM) Leishmania donovani. Here is the method:
This test was done using the protozoa of Leishmania donovani (MHOM/ET/67/L82 strain). The protozoa were subcultured using Syrian Golden hamster and an amastigote was obtained therefrom. The amastigotes were cultured in SM medium supplemented with 10% of heat-treated fetal calf serum (pH 5.4) under CO2 concentration of 5%, at 37° C.
A test sample was prepared by dissolving the test compounds according to the present invention and a positive control drug (Miltefosine) in DMSO to a predetermined concentration. Culture medium containing a predetermined number of the protozoa was added into each well of a 96-well culture plate, and the concentration of the amastigotes was measured by means of CASY cell analysis system (Dermany, Scharfe Co.). Test sample comprising the predetermined amount of the test compound, and DMSO without the test compound were added to the wells in duplicate.
After incubation of the culture plate for 72 hours in an incubator, a growth-inhibiting activity was assayed as follows. Alamar Blue aqueous solution (10 μL) was added to each well followed by a further two-hour culture. The culture plate was then attached to a fluorescence micro titer plate reader (Spectramax Gemeni XS; U.S. Molecular device Co.), the intensity of fluorescence at 588 nm was detected with excitation wave length of 536 nm to calculate an infection ratio of the protozoa with respect to a group trated with the test sample and a control group. A growth-inhibiting ratio was then calculated from the resulting infection ratio in accordance with the following equation to determine 50% growth-inhibiting concentration (EC50).
as §2
A selective toxicity coefficient, which is used as an index for the selective toxicity for the protozoa of Leishmaniasis, was calculated by the following equation, and the pharmaceutical effect was determined.
A selective toxicity coefficient=(EC50 value of the test sample for rat L6 cell)/(EC50 value of the test sample for the protozoa of Leishmaniasis).

[4] abbreviates: Table 3, 72 h, Alamar Blue, read-out: 50% growth-inhibiting concentration (nM) cytotoxicity L6.
The mark [5] stands for this setting: Table 8, read-out: 50% growth-inhibiting concentration (nM) cytotoxicity L6.
Where [6] appears, read: Table 9, read-out: 50% growth-inhibiting concentration (nM) cytotoxicity L6.
[7] abbreviates: Table 10, read-out: growth-inhibiting concentration (nM) Cytotoxicity L6.

Each structure is given as a SMILES string. Like-named read-outs stand apart in the source and are kept apart here.

Consider `CCCC[N+](CCCC)=c1ccc2nc3ccc(N(C)C)cc3oc-2c1.[O-][Cl+3]([O-])([O-])[O-]` [Compound A-7], for which the EC50 in series [1] (setting [4]) was 409 nM; in series [1] (setting [5]), 409 nM; in series [1] (setting [6]), 409 nM; in series [1] (setting [7]), 409 nM; in series [2], 113 nM; in series [3], 6 nM.
In the case of `CCCC[N+](CCCC)=c1ccc2nc3ccc(N(CC)CC)cc3oc-2c1.[Cl-]` [Compound A-6], the EC50 in series [1] (setting [4]) turned out to be 839 nM; in series [1] (setting [5]) it was 839 nM; in series [1] (setting [6]), 839 nM; in series [1] (setting [7]), 839 nM; in series [2], 67.2 nM; in series [3] it was 23 nM.
For the compound `CN(C)c1ccc2nc3ccc(=[N+](C)C)cc-3oc2c1.CN(C)c1ccc2nc3ccc(=[N+](C)C)cc-3oc2c1.[Cl-].[Cl-].[Cl][Zn][Cl]` [Compound A-3], the EC50 in series [1] (setting [4]) was determined as 8870 nM; in series [1] (setting [5]), 8870 nM; in series [1] (setting [6]), 8870 nM; in series [1] (setting [7]), 8870 nM; in series [2] it was 565 nM; in series [3], 887 nM.
In the case of `CC[N+](CC)=c1ccc2nc3ccc(N(C)C)cc3oc-2c1` [Compound A-4], in series [2] (EC50 rat L6 cell / EC50 protozoa of African trypanosomiasis), the Selective toxicity is reported as 9.4. For the same compound, the EC50 in series [2] (Trypanosoma brucei, STIB900) amounted to 497 nM.
Regarding `CCN(CC)c1ccc2nc3ccc(=[N+](CC)CC)cc-3oc2c1.[Cl-]` [A-1 (>95% purity)], in series [1], the EC50 worked out at 20500 nM.
As to `CCN(CC)c1ccc2nc3ccc(=[N+](CC)CC)cc-3oc2c1.[Cl-]` [A-1 (60% purity)], the results for the EC50 in series [1], in series [2] and in series [3] were 3950 nM, 181 nM and 2810 nM, respectively.
